Ends that are not written are not given here. Peptide text beside a SMILES is read from it.
Legend:
[1] = system: alternative complement (C3) pathway; experiment: Inhibition of C3-activation: preventing IgA-α1AT complex from activating the alternative complement pathway, rabbit erythrocyte haemolysis read-out; format: biochemical, human
Experimental: Various peptides were tested for their ability to prevent the IgA-α1AT complex from activating the alternative complement (C3) pathway.
The method of measuring the capacity to activate the alternative complement pathway by the non-immune IgA-α1AT complex and the subsequent inhibition of this activation by anti-rheumatic peptides is described below.
This method was based on the method described by Riches and Stanworth, Immunology Letters, 1980, 1, 363,366, with modification to miniaturise it thus allowing the assay to be carried out on microtitre plates.
The initial observation by Platts-Mills and Ishizaka (J Immunol. (1974) 113, 348,358) that low dilutions of fresh normal human serum, from which calcium had been removed by chelation with 10mM EGTA to block the classical complement pathway, caused greater than 90% haemolysis of unsensitised rabbit erythrocytes when incubated at 37°C was employed in this assay.
The non-immune complex IgA-α1AT had been shown in the past to be the only known soluble complex to activate the alternative pathway complement and […] of the rabbit erythrocytes. This inhibition required biologically active complex.
The buffers solutions required in this assay were (a) Total lysis buffer (1% Triton100 in ultra pure water), (b) Alternative pathway complement fixation diluent (APCFD) which was:- • 83 volumes CFD, DH 7.2 (1 oxoid tablet: 100ml UPW) • 10 volumes 0.1M EGTA pH 7.2 • 7 volumes MgCl2 pH 7.2
Blood was obtained by venipuncture from a healthy human individual. The blood was allowed to clot for 1 hour at room temperature and then stored overnight at 4°C. The serum was removed and stored at -70°C in lml aliquots. For use, the serum was defrosted and 100µl of 0.1m EGTA pH 7.2 and 70µl O.lm MgCl2 pH 7.2 was added.
Rabbit red blood cells (RBC) were obtained by venipuncture of a healthy rabbit and collected into 0.1M citrate buffer pH 6.2. The RBC were washed 3 times in citrate buffer and the cells were stored in this buffer which was changed every week. It was possible to store cells in this way for 3 weeks. Peptides
The peptides were synthesised as described in Example 1 and made up in UPW to lmM. They were kept frozen at -70°C prior to use.
This was prepared as previously described in Example 2. It was kept frozen in small aliquots prior to use.
Using a round bottomed welled flexible microtitre plate 100µl neat serum (with added EGTA and MgCl2) was added to the first wells in duplicate. This was double diluted out, with APCFD to give a volume of 50µl well. 8 test wells (+ duplicates) were sufficient. 8 wells were prepared as a positive control - (100µl 1% Triton/UPW). 8 wells were prepared as a negative control - (100µl APCFD (Blank)).
50µl of APCFD was added to the test wells and 50µl of 1% rabbit RBC was added to all wells. The plate was then incubated at 37°C for 30 minutes and then centrifuged for 10 minutes at 2000 rpm.
75µl of the supernatant was carefully removed and plated onto a flat bottom welled microtitre plate. The plates were then read at 410nm interference, 690nm reference. The zero or blank value was calculated as the mean value of negative control wells and using the mean of the positive control wells, the percentage lysis for serum dilutions was calculated. In future assays the serum dilution in which lysis was approx. 80% of Rb RBC was used. This was usually in the range 1:4 - 1:6 dilution (ie. lml serum : 4ml APCFD - 6ml APCFD).
A 1:1 dilution of IgA-α1AT complex was made with twice concentrated APCFD. 100µl of this 1:1 dilution of complex was added to the first wells in duplicate. This was double diluted out with APCFD to give 50 µl per well. 50µl of the predetermined dilution of serum (see (i) above) was added to each well. Positive and negative control wells as described in (a) above and wells containing serum alone were used as controls. The plates were incubated at 37°C for 30 minutes and then centrifuged at 2000 rpm for 1 minute. […]

IgA-α1AT complex = experiment: HPLC analysis of in vitro dissociation of purified IgA-α1AT complex; format: biochemical, human; details: for HPLC minimum: Table 5, minimum concentration giving complex : free IgA ratio at 20% (base-line 14%), >500µM = no complex dissociation at highest concentration tested; for HPLC %: Table 1; for activity: comment in words on Tables 3-5, assay not given, fits the HPLC values
Experimental: The ability of the peptides of the invention to dissociate purified IgA-α1AT complex in vitro was tested as described below. The anti-rheumatic drug D-penicillamine and other synthetic peptides were used as controls. […] The sample was monitored at wavelength 206nm at a flow rate of 1ml/minute with phosphate buffer (0.1M) pH 7.1. […] They represent the ability of the peptides to dissociate the IgA-α1AT complex in vitro. In these experiments, the base-lines level comprises a complex : free IgA ratio of 14% . The minimum concentration of peptide taken to produce a positive dissociation effect is that which results in a complex: free IgA ratio at 20%. In the results tables, all the peptide values are expressed in µMoles.

[2] = system: alternative complement (C3) pathway; experiment: Inhibition of C3-activation: preventing IgA-α1AT complex from activating the alternative complement pathway, rabbit erythrocyte haemolysis read-out; format: biochemical, human; details: Table 5; minimum concentration needed to prevent C3 activation
[3] = system: mouse macrophage cell line (PU 518); experiment: Macrophage inhibition assay: IgA-α1AT complex-stimulated release of lysosomal enzymes; format: cell-based
Experimental: A mouse macrophage cell line (PU 518) was stimulated to release lysosomal enzymes by the addition of purified human IgA-α1AT complex. The degree to which this release was then inhibited by the peptides or other drugs was investigated, with the degree of inhibition being indicative of activity; the concentration of peptide or other test drugs giving 50% inhibition being recorded. Briefly the method was as follows:
25µl of peptide or drug was double diluted in […] + 10% foetal calf serum (FCS) in a sterile tissue culture 96 well plate. 25µl of IgA-α1AT complex in RPMI 1640 +10% FCS at about 0.2mg/ml was then added to all wells. 50µl of cells at a concentration of 2 x 10^6 cells/ml in RPMI 1640 + 10% FCS was then added to each well.
Control wells of cells alone and cells + IgA-α1AT complex were also prepared. The plate was then gently mixed and incubated overnight (16hr) at 37°C in a 4% CO2 atmosphere. Plates were then centrifuged at 1200 rpm for 10 minutes in a bench top centrifuge.
40µl of supernatant was then taken from each well and added to a 96 well polystyrene assay plate, to which was added 40µl of 160mM acetate buffer (pH 4.3) containing 2mM phenolphthalein-β-D-glucuronic acid. To obtain a standard curve, dilutions of phenolphthalein in acetate buffer from 100-5µg/ml were also added to separate wells in the assay plate.
The plates were then incubated at 37°C for 4 hours before 150µl of 0.2M glycine/NaOH buffer (pH 10.6) containing 0.2M NaCl was added to stop the reaction.
Plates were then shaken for 3 minutes before the optical density at 570nm was read on a plate reader, and the amount of β-D-glucuronic acid released from the cells calculated. The concentration of peptide or drug giving 50% inhibition of release was then noted.
The results for the macrophage inhibition assays are expressed as the concentration needed to prevent 50% release of β-glucoromidase.

[4] = Table 4, minimum concentration of peptide needed to prevent C3 activation
[5] = Table 4, minimum peptide concentration giving complex : free IgA ratio at 20% (base-line 14%), 90 minutes at 37°C
[6] = Table 1, minimum concentration of peptide needed to prevent C3 activation
[7] = minimum peptide concentration giving complex : free IgA ratio at 20% (base-line 14%), 90 minutes at 37°C
[8] = Table 5, minimum concentration needed to prevent C3 activation

For HCKKE-NH2 [Peptide 150, HCKKEnh2], the “C'” value [1, 4] was 8 µM and the “HPLC” value (IgA-α1AT complex; [5]) was 50 µM.

With CC(C)(S)[C@@H](N)C(=O)O [D-Penicillamine] the “C' minimum” value [2] was 31 µM, the IC50 ([3]; Table 5, head prints no unit, b70 says all values of the results tables are in µMoles, concentration needed to prevent 50% release of β-glucoromidase) was 500 µM and the “HPLC minimum” value (IgA-α1AT complex; 90 minutes at 37°C) was 250 µM.

HYCKK-NH2 [Peptide 199, HYCKKnh2] was tested, and the “C'” value [1, 6] was 3.9 µM and the “HPLC %” value (IgA-α1AT complex; [7]) was 10 µM.

For N[C@@H](CCC(=O)N[C@@H](CS)C(=O)NCC(=O)O)C(=O)O [Glutathione], the “C' minimum” value [2] was 31 µM, the “HPLC minimum” value (IgA-α1AT complex; 90 minutes at 37°C) was 500 µM and the activity (IgA-α1AT complex) was “relatively inactive”.

In the case of NCCCC[C@H](NC(=O)[C@H](CCCCN)NC(=O)[C@@H](N)CS)C(N)=O [Peptide 114, CKKnh2] (H-Cys-Lys-Lys-NH2), the “C' minimum” value ([1]; Table 2, minimum concentration of peptide needed to prevent C3 activation) is reported as >1250 µM and the “HPLC% minimum” value (IgA-α1AT complex; Table 2, minimum peptide concentration giving complex : free IgA ratio at 20% (base-line 14%), 90 minutes at 37°C) is reported as 125 µM.

In the case of HFCKK-NH2 [Peptide 208, HFCKKnh2], the “C'” value [1, 6] is reported as 3.9 µM and the “HPLC %” value (IgA-α1AT complex; [7]) is reported as 10 µM.

“Substance P [Peptide 36, reference compound]” was tested, and the “C' minimum” value [1, 8] was >500 µM, the IC50 ([3]; Table 5; head prints no unit, b70 says all values of the results tables are in µMoles; concentration needed to prevent 50% release of β-glucoromidase) was > 500 µM and the “HPLC minimum” value (IgA-α1AT complex; 90 minutes at 37°C) was >500 µM.

C[C@@H](NC(=O)[C@H](CCCCN)NC(=O)[C@H](CCCCN)NC(=O)[C@H](CS)NC(=O)[C@@H](N)Cc1c[nH]cn1)C(N)=O [Peptide 206, HCKKdAnh2] (HELM PEPTIDE1{H.C.K.K.[dA].[am]}$$$$V2.0) was tested, and the “C'” value [1, 4] was 31.3 µM and the “HPLC” value (IgA-α1AT complex; [5]) was 50 µM.

For HCKKGGD-NH2 [Peptide 122, HCKKGGDnh2], the “C'” value [1, 4] was 31 µM and the “HPLC” value (IgA-α1AT complex; [5]) was 50 µM.

With HPCKK-NH2 [Peptide 201, HPCKKnh2] the “C'” value [1, 6] was 3.9 µM and the “HPLC %” value (IgA-α1AT complex; [7]) was 10 µM.

With DGHCKK-NH2 [Peptide 119, DGHCKKnh2] the “HPLC” value (IgA-α1AT complex; Table 3, minimum peptide concentration giving complex : free IgA ratio at 20% (base-line 14%), 90 minutes at 37°C) was 10 µM.

In the case of HDCKK-NH2 [Peptide 198, HDCKKnh2], the “C'” value [1, 6] is reported as 3.9 µM and the “HPLC %” value (IgA-α1AT complex; [7]) is reported as 10 µM.

HCKKGE-NH2 [Peptide 151, HCKKGEnh2] was tested, and the “C'” value [1, 4] was 16 µM and the “HPLC” value (IgA-α1AT complex; [5]) was 50 µM.

With “IVLVDNKCKCAR [Peptide 89, reference compound]” the “C' minimum” value [1, 8] was 125 µM and the “HPLC minimum” value (IgA-α1AT complex; 90 minutes at 37°C) was 50 µM.

For HFCKK-NH2 [Peptide 209, HFCKKnh2], the “C'” value [1, 6] was 3.9 µM.

With NCCCC[C@H](NC(=O)[C@@H](N)CS)C(N)=O [Peptide 115, CKnh2, reference compound] (H-Cys-Lys-NH2) the “HPLC minimum” value (IgA-α1AT complex; 90 minutes at 37°C) was 500 µM and the activity (IgA-α1AT complex) was “substantially less active”.

Reference: patent publication EP0614464B1, “PEPTIDES AND ANTIBODIES FOR TREATMENT OF RHEUMATOID ARTHRITIS” (PEPTIDE THERAPEUTICS LIMITED, priority 1991, dated 1993)
